In patent US9944603B2, “Compounds and methods for the treatment of cystic fibrosis” (Flatley Discovery Lab, LLC, priority 2013, dated 2018) one finds EC50 and Emax data, which are given here for 27 compounds.

SMILES strings stand for the structures. pEC50: −log10 of the molar value.

In one experiment the target is T1, human F508del CFTR (Homo sapiens, UniProt P13569, DEL508-508).
T1 construct: expressed in transfected cells
T1 sequence (P13569 with tags, fused parts or gaps DEL508-508): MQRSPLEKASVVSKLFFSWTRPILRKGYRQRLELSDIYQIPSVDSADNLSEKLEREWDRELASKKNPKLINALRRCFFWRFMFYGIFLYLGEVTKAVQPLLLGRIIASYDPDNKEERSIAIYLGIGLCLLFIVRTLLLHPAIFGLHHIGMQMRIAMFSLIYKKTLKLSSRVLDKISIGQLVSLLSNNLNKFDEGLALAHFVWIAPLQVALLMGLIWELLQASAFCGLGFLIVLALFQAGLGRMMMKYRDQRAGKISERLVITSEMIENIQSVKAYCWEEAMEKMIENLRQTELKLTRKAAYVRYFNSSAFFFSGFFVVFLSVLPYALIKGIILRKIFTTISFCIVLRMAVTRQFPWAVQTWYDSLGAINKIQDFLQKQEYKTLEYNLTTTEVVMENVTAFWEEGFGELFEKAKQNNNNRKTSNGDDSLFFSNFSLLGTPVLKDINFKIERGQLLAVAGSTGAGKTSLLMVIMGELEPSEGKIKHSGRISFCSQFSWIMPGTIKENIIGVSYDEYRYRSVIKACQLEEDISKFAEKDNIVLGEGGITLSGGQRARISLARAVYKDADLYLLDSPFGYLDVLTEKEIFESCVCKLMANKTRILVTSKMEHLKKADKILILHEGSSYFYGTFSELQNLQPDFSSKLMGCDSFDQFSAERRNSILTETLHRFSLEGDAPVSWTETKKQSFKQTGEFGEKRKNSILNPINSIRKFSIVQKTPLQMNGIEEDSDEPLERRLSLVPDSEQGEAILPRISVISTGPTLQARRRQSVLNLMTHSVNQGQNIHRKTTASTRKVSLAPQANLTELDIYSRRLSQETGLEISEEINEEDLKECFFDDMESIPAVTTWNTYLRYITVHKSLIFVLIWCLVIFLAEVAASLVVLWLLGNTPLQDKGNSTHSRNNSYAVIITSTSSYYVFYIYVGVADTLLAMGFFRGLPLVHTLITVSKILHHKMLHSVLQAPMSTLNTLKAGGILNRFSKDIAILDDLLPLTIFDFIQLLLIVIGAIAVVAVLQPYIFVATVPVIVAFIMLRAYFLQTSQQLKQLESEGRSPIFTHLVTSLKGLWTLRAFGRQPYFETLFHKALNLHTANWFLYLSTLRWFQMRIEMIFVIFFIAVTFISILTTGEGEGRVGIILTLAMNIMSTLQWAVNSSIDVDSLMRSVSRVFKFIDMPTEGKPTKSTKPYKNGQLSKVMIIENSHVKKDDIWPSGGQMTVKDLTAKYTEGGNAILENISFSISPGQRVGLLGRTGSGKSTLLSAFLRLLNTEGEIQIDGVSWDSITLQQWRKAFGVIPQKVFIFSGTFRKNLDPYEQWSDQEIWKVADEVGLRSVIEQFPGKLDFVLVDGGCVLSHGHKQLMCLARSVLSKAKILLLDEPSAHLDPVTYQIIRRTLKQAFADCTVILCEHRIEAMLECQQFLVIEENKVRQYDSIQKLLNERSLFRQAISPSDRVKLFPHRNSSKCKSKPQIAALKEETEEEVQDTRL
In words: CFTR-YFP Assay, CFTR Corrector Protocol (YFP flux assay). In kind it is cell-based.
Details: not given
Compound `Cc1ccc(S(=O)(=O)N2CCC(n3c(-c4ccccc4Cl)nc4ccc(C)nc43)CC2)cc1` [Example 65] gave a pEC50 greater than 5.00.

Take `O=S(=O)(N1CCOCC1)N1CCC(n2c(-c3ccccc3)nc3cccnc32)CC1` [Example 67]: the pEC50 is less than 4.70.

Turning to `COc1cccc(S(=O)(=O)N2CCC(n3c(-c4ccccc4)nc4cccnc43)CC2)c1` [Example 68], the pEC50 was greater than 5.00.

In turn, `CC(C)c1ccc(S(=O)(=O)N2CCC(n3c(-c4ccccc4)nc4cccnc43)CC2)cc1` [Example 69] had a pEC50 greater than 5.00.

Turning to `CC(=O)Nc1ccc(S(=O)(=O)N2CCC(n3c(-c4ccccc4)nc4cccnc43)CC2)cc1Cl` [Example 70], the pEC50 was greater than 5.00.

The compound `N#Cc1ccc(S(=O)(=O)N2CCC(n3c(-c4ccccc4)nc4cccnc43)CC2)cc1Cl` [Example 71] gave a pEC50 greater than 5.00.

Turning to `O=S(=O)(c1c[nH]cn1)N1CCC(n2c(-c3ccccc3)nc3cccnc32)CC1` [Example 72], the negative logarithm of the EC50 (pEC50) was greater than 5.00.

Consider `COc1ccc(S(=O)(=O)N2CCC(n3c(-c4ccccc4)nc4cccnc43)CC2)cc1C` [Example 73], for which the pEC50 is greater than 5.00.

`COc1ccc(S(=O)(=O)N2CCC(n3c(-c4ccccc4)nc4cccnc43)CC2)cc1C(F)(F)F` [Example 74] gave a pEC50 greater than 5.00.

`COc1ccc(S(=O)(=O)N2CCC(n3c(-c4ncc[nH]4)nc4cccnc43)CC2)cc1Cl` [Example 75]: the pEC50 was 4.70 to 5.00.

Consider `COc1ccc(S(=O)(=O)N2CCC(n3c(-c4ccccc4OC(F)(F)F)nc4cccnc43)CC2)cc1Cl` [Example 76], for which the pEC50 was greater than 5.00.

Compound `COc1ccc(S(=O)(=O)N2CCC(n3c(-c4ccc(F)cc4)nc4cccnc43)CC2)cc1Cl` [Example 77] gave a pEC50 greater than 5.00.

With `COc1ccc(S(=O)(=O)N2CCC(n3c(-c4ccc(C(F)(F)F)cc4)nc4cccnc43)CC2)cc1Cl` [Example 78], the pEC50 was greater than 5.00.

Compound `COC(=O)c1ccccc1-c1nc2cccnc2n1C1CCN(S(=O)(=O)c2ccc(OC)c(Cl)c2)CC1` [Example 79] had a negative logarithm of the EC50 (pEC50) greater than 5.00.

The compound `COc1ccc(S(=O)(=O)N2CCC(n3c(-c4ccccc4OC(C)=O)nc4cccnc43)CC2)cc1Cl` [Example 80] gave a pEC50 greater than 5.00.

As to `COc1ccc(S(=O)(=O)N2CCC(n3c(-c4ccccc4)nc4ccccc43)CC2)cc1Cl` [Example 81], the pEC50 was greater than 5.00.

With `O=S(=O)(c1ccc2c(c1)OC(F)(F)O2)N1CCC(n2c(-c3ccccc3)nc3ccccc32)CC1` [Example 82], the pEC50 is greater than 5.00.

`Cc1ccc2nc(-c3ccccc3F)n(C3CCN(S(=O)(=O)c4ccc5c(c4)OC(F)(F)O5)CC3)c2n1` [Example 83] showed a pEC50 greater than 5.00.

`Cc1ccc2nc(-c3ccc(F)cc3)n(C3CCN(S(=O)(=O)c4ccc5c(c4)OC(F)(F)O5)CC3)c2n1` [Example 84] showed a pEC50 greater than 5.00.

Consider `COc1ccc(S(=O)(=O)N2CCC(n3c(-c4ccccc4Cl)nc4ccc(C)nc43)CC2)cc1OC` [Example 85], for which the pEC50 is less than 4.70.

As to `Cc1ccc2nc(-c3ccccc3Cl)n(C3CCN(S(=O)(=O)c4ccc5c(c4)OC(F)(F)O5)CC3)c2n1` [Example 86], the pEC50 is greater than 5.00.

For the compound `Cc1ccc2nc(-c3ccc4c(c3)OC(F)(F)O4)n(C3CCN(S(=O)(=O)c4ccc5c(c4)OC(F)(F)O5)CC3)c2n1` [Example 87], the pEC50 was less than 4.70.

The compound `COc1ccc(S(=O)(=O)N2CCC(n3c(-c4cccnc4Cl)nc4cccnc43)CC2)cc1Cl` [Example 88] gave a pEC50 of less than 4.70.

`COc1ccc(S(=O)(=O)N2CCC(n3c(-c4ccncc4Cl)nc4cccnc43)CC2)cc1Cl` [Example 89] showed a pEC50 of 4.70 to 5.00.

`COc1ccc(S(=O)(=O)N2CCC(n3c(-c4ncccc4Cl)nc4cccnc43)CC2)cc1Cl` [Example 90] showed a pEC50 of 4.70 to 5.00.

`CCc1ccc(S(=O)(=O)N2CCC(n3c(-c4ncccc4Cl)nc4cccnc43)CC2)cc1` [Example 91] gave a pEC50 greater than 5.00.

In turn, `O=S(=O)(c1ccc2c(c1)OCO2)N1CCC(n2c(-c3cccnc3Cl)nc3cccnc32)CC1` [Example 92] gave a pEC50 greater than 5.00.

Staying with this experiment, now noted: normalized to the positive control, read-out: EMAX (% Efficacy, EMAX normalized to the positive control).
`Cc1ccc(S(=O)(=O)N2CCC(n3c(-c4ccccc4Cl)nc4ccc(C)nc43)CC2)cc1` [Example 65]: the Emax was 30 to 80%.

With `O=S(=O)(N1CCOCC1)N1CCC(n2c(-c3ccccc3)nc3cccnc32)CC1` [Example 67], the Emax was in the range of 10 to 30%.

In the case of `COc1cccc(S(=O)(=O)N2CCC(n3c(-c4ccccc4)nc4cccnc43)CC2)c1` [Example 68], the Emax was in the range of 10 to 30%.

For `CC(C)c1ccc(S(=O)(=O)N2CCC(n3c(-c4ccccc4)nc4cccnc43)CC2)cc1` [Example 69], the Emax was in the range of 10 to 30%.

On to `CC(=O)Nc1ccc(S(=O)(=O)N2CCC(n3c(-c4ccccc4)nc4cccnc43)CC2)cc1Cl` [Example 70], for which the Emax was 10 to 30%.

As for `N#Cc1ccc(S(=O)(=O)N2CCC(n3c(-c4ccccc4)nc4cccnc43)CC2)cc1Cl` [Example 71], the Emax was in the range of 10 to 30%.

Turning to `O=S(=O)(c1c[nH]cn1)N1CCC(n2c(-c3ccccc3)nc3cccnc32)CC1` [Example 72], the Emax is 10 to 30%.

With `COc1ccc(S(=O)(=O)N2CCC(n3c(-c4ccccc4)nc4cccnc43)CC2)cc1C` [Example 73], the Emax lay in the range of 30 to 80%.

`COc1ccc(S(=O)(=O)N2CCC(n3c(-c4ccccc4)nc4cccnc43)CC2)cc1C(F)(F)F` [Example 74]: the Emax fell in the range of 30 to 80%.

Turning to `COc1ccc(S(=O)(=O)N2CCC(n3c(-c4ncc[nH]4)nc4cccnc43)CC2)cc1Cl` [Example 75], the Emax was 30 to 80%.

With `COc1ccc(S(=O)(=O)N2CCC(n3c(-c4ccccc4OC(F)(F)F)nc4cccnc43)CC2)cc1Cl` [Example 76], the Emax fell in the range of 30 to 80%.

With `COc1ccc(S(=O)(=O)N2CCC(n3c(-c4ccc(F)cc4)nc4cccnc43)CC2)cc1Cl` [Example 77], the Emax lay within 30 to 80%.

As to `COc1ccc(S(=O)(=O)N2CCC(n3c(-c4ccc(C(F)(F)F)cc4)nc4cccnc43)CC2)cc1Cl` [Example 78], the Emax is 10 to 30%.

`COC(=O)c1ccccc1-c1nc2cccnc2n1C1CCN(S(=O)(=O)c2ccc(OC)c(Cl)c2)CC1` [Example 79]: the Emax is 30 to 80%.

Turning to `COc1ccc(S(=O)(=O)N2CCC(n3c(-c4ccccc4OC(C)=O)nc4cccnc43)CC2)cc1Cl` [Example 80], the Emax fell in the range of 30 to 80%.

For `COc1ccc(S(=O)(=O)N2CCC(n3c(-c4ccccc4)nc4ccccc43)CC2)cc1Cl` [Example 81], the Emax was 30 to 80%.

As for `O=S(=O)(c1ccc2c(c1)OC(F)(F)O2)N1CCC(n2c(-c3ccccc3)nc3ccccc32)CC1` [Example 82], the Emax is 30 to 80%.

Consider `Cc1ccc2nc(-c3ccccc3F)n(C3CCN(S(=O)(=O)c4ccc5c(c4)OC(F)(F)O5)CC3)c2n1` [Example 83], for which the Emax was 30 to 80%.

As to `Cc1ccc2nc(-c3ccc(F)cc3)n(C3CCN(S(=O)(=O)c4ccc5c(c4)OC(F)(F)O5)CC3)c2n1` [Example 84], the Emax was in the range of 30 to 80%.

`COc1ccc(S(=O)(=O)N2CCC(n3c(-c4ccccc4Cl)nc4ccc(C)nc43)CC2)cc1OC` [Example 85]: the Emax lay in the range of 10 to 30%.

On to `Cc1ccc2nc(-c3ccccc3Cl)n(C3CCN(S(=O)(=O)c4ccc5c(c4)OC(F)(F)O5)CC3)c2n1` [Example 86], for which the Emax fell in the range of 30 to 80%.

In the case of `Cc1ccc2nc(-c3ccc4c(c3)OC(F)(F)O4)n(C3CCN(S(=O)(=O)c4ccc5c(c4)OC(F)(F)O5)CC3)c2n1` [Example 87], the Emax lay within 10 to 30%.

`COc1ccc(S(=O)(=O)N2CCC(n3c(-c4cccnc4Cl)nc4cccnc43)CC2)cc1Cl` [Example 88]: the Emax fell in the range of 30 to 80%.

For `COc1ccc(S(=O)(=O)N2CCC(n3c(-c4ccncc4Cl)nc4cccnc43)CC2)cc1Cl` [Example 89], the Emax was greater than 80%.

Take `COc1ccc(S(=O)(=O)N2CCC(n3c(-c4ncccc4Cl)nc4cccnc43)CC2)cc1Cl` [Example 90]: the Emax is 30 to 80%.

`CCc1ccc(S(=O)(=O)N2CCC(n3c(-c4ncccc4Cl)nc4cccnc43)CC2)cc1` [Example 91]: the Emax is 30 to 80%.

For the compound `O=S(=O)(c1ccc2c(c1)OCO2)N1CCC(n2c(-c3cccnc3Cl)nc3cccnc32)CC1` [Example 92], the Emax lay in the range of 30 to 80%.

Broadly, the pEC50 is −log10 of the EC50, conventionally taken in molar units. A higher pEC50 goes with a small EC50. As a reminder, the Emax is the maximal effect, on the per cent scale that the assay sets.
